Reference: ChEMBL document CHEMBL3792276, “Design and synthesis of diamide-coupled benzophenones as potential anticancer agents” (Eur J Med Chem, 2016)
Active and inactive are the calls of the source. The rule behind the calls is not given here.

Experiments:
A549 [1] = experiment: Cytotoxicity against human A549 cells after 48 hrs by MTT assay; type: functional, cell-based
MCF7 [2] = experiment: Cytotoxicity against human MCF7 cells after 48 hrs by MTT assay; type: functional, cell-based
DLA [3] = experiment: (§1) Cytotoxicity against mouse DLA cells after 48 hrs by MTT assay; type: functional, cell-based
A549 [4] = experiment: Cytotoxicity against human A549 cells after 48 hrs by LDH leak assay; type: functional, cell-based
MCF7 [5] = experiment: Cytotoxicity against human MCF7 cells after 48 hrs by LDH leak assay; type: functional, cell-based
DLA [6] = experiment: (§2) Cytotoxicity against mouse DLA cells after 48 hrs by LDH leak assay; type: functional, cell-based
A549 [7] = experiment: Cytotoxicity against human A549 cells after 48 hrs by trypan blue assay; type: functional, cell-based
MCF7 [8] = experiment: Cytotoxicity against human MCF7 cells after 48 hrs by trypan blue assay; type: functional, cell-based
DLA [9] = experiment: (§3) Cytotoxicity against mouse DLA cells after 48 hrs by trypan blue assay; type: functional, cell-based
[10] = as §1; type: functional, cell-based
[11] = as §2; type: functional, cell-based
[12] = as §3; type: functional, cell-based
[13] = Antitumor activity against mouse DLA cells allografted in Swiss albino mouse assessed as inhibition of tumor growth at 75 mg/kg, ip administered as 3 doses on alternative days post 4 days of tumor implantation measured after final dose of drug challenge; type: functional; settings: 96 h
Mus musculus [14] = experiment: Decrease in ascites fluid secretion in Swiss albino mouse allografted with mouse DLA cells at 75 mg/kg, ip administered as 3 doses on alternative days post 4 days of tumor implantation; type: functional, organism-based
Mus musculus [15] = experiment: Decrease in cell count Swiss albino mouse allografted with mouse DLA cells at 75 mg/kg, ip administered as 3 doses on alternative days post 4 days of tumor implantation; type: functional, organism-based
[16] = Antitumor activity against mouse DLA cells allografted in Swiss albino mouse assessed as induction of tumor regression at 75 mg/kg, ip administered as 3 doses on alternative days post 4 days of tumor implantation; type: functional
[17] = Antitumor activity against mouse DLA cells allografted in Swiss mouse assessed as increase in animal survival time at 75 mg/kg, ip administered as 3 doses on alternative days post 4 days of tumor implantation; type: functional
Mus musculus [18] = species: Mus musculus; experiment: Antiangiogenic activity against Swiss albino mouse allografted with mouse DLA cells assessed as decrease in peritoneal angiogenesis measured as […]; type: functional
Chorioallantoic membrane = experiment: Antiangiogenic activity in chicken chorioallantoic membrane assessed as inhibition of rVEGF-induced neovascularization measured upto 12 days; type: functional; settings: Gallus gallus

In the case of `Cc1ccc(C(=O)c2ccc(OCC(=O)Nc3ccccc3NC(=O)COc3ccc(C(=O)c4ccc(Br)cc4)cc3C)c(C)c2)cc1`, the Activity (A549 [1]) is reported as “inactive”, the Activity (MCF7 [2]) is reported as “inactive” and the Activity (DLA [3]) is reported as “inactive”. The Activity (A549 [4]) was “inactive”, the Activity (MCF7 [5]) was “inactive” and the Activity (DLA [6]) was “inactive”. The Activity (A549 [7]) was “inactive”, the Activity (MCF7 [8]) was “inactive” and the Activity (DLA [9]) was “inactive”.

For `Cc1cc(C(=O)c2ccccc2)ccc1OCC(=O)Nc1ccccc1NC(=O)COc1c(F)cc(C(=O)c2ccc(Cl)cc2)cc1Cl`, the Activity (A549 [1]) was “inactive”, the Activity (MCF7 [2]) was “inactive” and the Activity (DLA [3]) was “inactive”. For the same molecule, the Activity (A549 [4]) was “inactive”, the Activity (MCF7 [5]) was “inactive” and the Activity (DLA [6]) was “inactive”. The Activity (A549 [7]) was “inactive”, the Activity (MCF7 [8]) was “inactive” and the Activity (DLA [9]) was “inactive”.

With `Cc1ccc(C(=O)c2ccc(OCC(=O)Nc3ccccc3NC(=O)COc3ccc(C(=O)c4ccccc4)cc3C)c(C)c2)cc1` the Activity (A549 [1]) was “inactive”, the Activity (MCF7 [2]) was “inactive” and the Activity (DLA [3]) was “inactive”. For the same molecule, the Activity (A549 [4]) was “inactive”, the Activity (MCF7 [5]) was “inactive” and the Activity (DLA [6]) was “inactive”. The Activity (A549 [7]) was “inactive”, the Activity (MCF7 [8]) was “inactive” and the Activity (DLA [9]) was “inactive”.

With `Cc1cc(C(=O)c2ccc(Br)cc2)ccc1OCC(=O)Nc1ccccc1NC(=O)COc1ccc(C(=O)c2ccc(Br)cc2)cc1C` the Activity (A549 [1]) was “inactive”, the Activity (MCF7 [2]) was “inactive” and the Activity (DLA [3]) was “inactive”. For the same molecule, the Activity (A549 [4]) was “inactive”, the Activity (MCF7 [5]) was “inactive” and the Activity (DLA [6]) was “inactive”. The Activity (A549 [7]) was “inactive”, the Activity (MCF7 [8]) was “inactive” and the Activity (DLA [9]) was “inactive”.

In the case of `Cc1cc(C(=O)c2ccccc2)ccc1OCC(=O)Nc1ccccc1NC(=O)COc1ccc(C(=O)c2ccc(Br)cc2)cc1C`, the Activity (A549 [1]) is reported as “inactive”, the Activity (MCF7 [2]) is reported as “inactive” and the Activity (DLA [3]) is reported as “inactive”. The Activity (A549 [4]) was “inactive”, the Activity (MCF7 [5]) was “inactive” and the Activity (DLA [6]) was “inactive”. The Activity (A549 [7]) was “inactive”, the Activity (MCF7 [8]) was “inactive” and the Activity (DLA [9]) was “inactive”.

For `Cc1cc(C(=O)c2ccc(Br)cc2)ccc1OCC(=O)Nc1ccccc1NC(=O)COc1c(F)cc(C(=O)c2ccc(Cl)cc2)cc1Cl`, the Activity (A549 [1]) was “inactive”, the Activity (MCF7 [2]) was “inactive” and the Activity (DLA [3]) was “inactive”. The Activity (A549 [4]) was “inactive”, the Activity (MCF7 [5]) was “inactive” and the Activity (DLA [6]) was “inactive”. The Activity (A549 [7]) was “inactive”, the Activity (MCF7 [8]) was “inactive” and the Activity (DLA [9]) was “inactive”.

In the case of `Cc1cc(C(=O)c2ccc(Br)cc2)ccc1OCC(=O)Nc1ccccc1NC(=O)COc1ccc(C(=O)c2ccccc2C)cc1C`, the IC50 (A549 [1]; A549, 48 h) is reported as 20 µM, the IC50 (MCF7 [2]; MCF7, 48 h) is reported as 23 µM and the IC50 [10] is reported as 23 µM. It also gave an IC50 (A549 [4]; A549, 48 h) of 20 µM, an IC50 (MCF7 [5]; MCF7, 48 h) of 23 µM and an IC50 [11] of 23 µM. The IC50 (A549 [7]; A549, 48 h) was 20 µM, the IC50 (MCF7 [8]; MCF7, 48 h) was 23 µM and the IC50 [12] was 23 µM. For the same molecule, the inhibition in vivo at 75 mg/kg [13] was 80%, the inhibition (Mus musculus [14]) was “Active” and the inhibition (Mus musculus [15]) was “Active”. The “fold change (FC)” value [16] was 2.5, the MST [17] was 37 days and the “inhibition (INH)” value (Mus musculus [18]) was over 50%. The inhibition (Chorioallantoic membrane) was “Active”.

For `Cc1cc(C(=O)c2ccccc2)ccc1OCC(=O)Nc1ccccc1NC(=O)COc1ccc(C(=O)c2ccccc2C)cc1C`, the Activity (A549 [1]) was “inactive”, the Activity (MCF7 [2]) was “inactive” and the Activity (DLA [3]) was “inactive”. The Activity (A549 [4]) was “inactive”, the Activity (MCF7 [5]) was “inactive” and the Activity (DLA [6]) was “inactive”. The Activity (A549 [7]) was “inactive”, the Activity (MCF7 [8]) was “inactive” and the Activity (DLA [9]) was “inactive”.

In the case of `Cc1cc(C(=O)c2ccc(Br)cc2)ccc1OCC(=O)Nc1ccccc1NC(=O)COc1cc(C)c(C(=O)c2ccccc2)cc1C`, the Activity (A549 [1]) is reported as “inactive”, the Activity (MCF7 [2]) is reported as “inactive” and the Activity (DLA [3]) is reported as “inactive”. For the same molecule, the Activity (A549 [4]) was “inactive”, the Activity (MCF7 [5]) was “inactive” and the Activity (DLA [6]) was “inactive”. For the same molecule, the Activity (A549 [7]) was “inactive”, the Activity (MCF7 [8]) was “inactive” and the Activity (DLA [9]) was “inactive”.

For `O=c1[nH]cc(F)c(=O)[nH]1`, the Activity (A549 [1]) was “inactive”, the Activity (MCF7 [2]) was “inactive” and the Activity (DLA [3]) was “inactive”. For the same molecule, the Activity (A549 [4]) was “inactive”, the Activity (MCF7 [5]) was “inactive” and the Activity (DLA [6]) was “inactive”. For the same molecule, the Activity (A549 [7]) was “inactive”, the Activity (MCF7 [8]) was “inactive” and the Activity (DLA [9]) was “inactive”.

In the case of `Cc1cc(C(=O)c2ccccc2)ccc1OCC(=O)Nc1ccccc1NC(=O)COc1ccc(C(=O)c2ccccc2)cc1C`, the Activity (A549 [1]) is reported as “inactive”, the Activity (MCF7 [2]) is reported as “inactive” and the Activity (DLA [3]) is reported as “inactive”. The Activity (A549 [4]) was “inactive”, the Activity (MCF7 [5]) was “inactive” and the Activity (DLA [6]) was “inactive”. For the same molecule, the Activity (A549 [7]) was “inactive”, the Activity (MCF7 [8]) was “inactive” and the Activity (DLA [9]) was “inactive”.

In the case of `Cc1cc(C(=O)c2ccccc2)c(C)cc1OCC(=O)Nc1ccccc1NC(=O)COc1cc(C)c(C(=O)c2ccccc2)cc1C`, the Activity (A549 [1]) is reported as “inactive”, the Activity (MCF7 [2]) is reported as “inactive” and the Activity (DLA [3]) is reported as “inactive”. The Activity (A549 [4]) was “inactive”, the Activity (MCF7 [5]) was “inactive” and the Activity (DLA [6]) was “inactive”. The Activity (A549 [7]) was “inactive”, the Activity (MCF7 [8]) was “inactive” and the Activity (DLA [9]) was “inactive”.

With `Cc1cc(C(=O)c2ccccc2)ccc1OCC(=O)Nc1ccccc1NC(=O)COc1cc(C)c(C(=O)c2ccccc2)cc1C` the Activity (A549 [1]) was “inactive”, the Activity (MCF7 [2]) was “inactive” and the Activity (DLA [3]) was “inactive”. The Activity (A549 [4]) was “inactive”, the Activity (MCF7 [5]) was “inactive” and the Activity (DLA [6]) was “inactive”. For the same molecule, the Activity (A549 [7]) was “inactive”, the Activity (MCF7 [8]) was “inactive” and the Activity (DLA [9]) was “inactive”.
